These results are taken from patent US20120309739A1, “AKT / PKB INHIBITORS” (ALMAC DISCOVERY LIMITED, priority 2009, published 2012).

Where a name gives a salt, the structure may show the parent alone.

Experiment [1] has as its target T1, AKT3 (Homo sapiens, UniProt Q9Y243).
T1 construct: purchased SignalChem
The experiment is described as follows: AKT Kinase Assay (IMAP fluorescent polarisation) vs AKT3. It is filed as biochemical. The settings on record: activated AKT3, FAM Crosstide substrate. The method, boiled down:
(§1)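 Each activated AKT isoform, at a pre-determined linear-range concentration, was pre-incubated 45 min at room temperature with compound in a fourteen-point half-log series. ATP plus 5′FAM-Crosstide then reacted 1 h; IMAP binding reagent stopped it (1 h). Fluorescence polarisation (ex 485/em 528 nm) versus vehicle gave IC50 by non-linear regression.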

For experiment [2], the system named is PC3 and/or LnCaP cell lines. The experiment is described as follows: In vitro cell proliferation assay (Cell Titre Glo). The experiment is classed as cell-based. The settings on record: Homo sapiens, 72 hours, read-out: inhibition of proliferation IC50. As for the experimental part:
Testing of the compounds was also performed using in vitro cell proliferation assays:
Cell Titre Glo (Promega) is a highly sensitive homogeneous reagent used to determine the viability of cells. The reagent uses a stable form of luciferase to measure ATP as an output of viability. The luminescent values generated in the assay are directly proportional to the number of viable cells in your assay.
The following materials were used: White, clear bottomed 96 well assay plates (Costar); Cell titre Glo reagents; LnCaP (ECACC) cells grown in RPMI medium (Invitrogen) supplemented with 10 mM HEPES (Invitrogen), 1 mM Sodium pyruvate (Invitrogen), 2 mM L-Glutamine (Invitrogen) and 10% Foetal calf serum (Invitrogen); PC3 (ECACC) cells grown in RPMI medium supplemented with 10% Foetal calf serum (Invitrogen); Trypsin (Invitrogen); PBS (Invitrogen); Biotek Synergy 4 Hybrid Plate reader; 96 well plate shaker (Stuart SSL5); Eppendorf 5414 desk-top centrifuge; Beckman Coulter cell counter Z1 single threshold system.
Prostate cell lines, PC3 and LnCaP, were washed, detached and re-suspended in their respective fresh media. The cells were pelleted by centrifugation (Eppendorf 5414) and spent supernatant discarded. The cells were re-suspended by vortex mixing, counted and seeded into clear bottom white 96 well plates at a density of 5000 cells per well. The cells were incubated (Sanyo) overnight at 37° C. ([…]/5% CO2), and next day treated with increasing concentrations of test compound formulated in fresh medium. The plates were returned to the incubator for 72 hours.
Cell Titre Glo (Promega) was prepared by mixing the supplied reagents as per manufacturer's instructions and left to stand at room temperature. The cell plates were removed from the incubator and 80 μl of the Cell Titre Glo solution added to each well. The plate was shaken for five minutes to ensure homogenous mixing of reagents and cells, then left to stand for ten minutes at room temperature.
The cell viability post compound treatment was determined by the luminescent intensity emitted from the drug treated wells in the plate. In brief, the assay plate was placed in the Biotex Synergy 4 Hybrid plate reader and the luminescence read in each well. The compound treated wells were compared to vehicle treated wells and the % inhibition of cell viability calculated.
The data was analysed using GraphPad Prism, with IC50 values generated using non-linear regression of the data set.

Experiment [3] concerns the target T2, AKT2 (Homo sapiens, UniProt P31751).
T2 construct: purchased SignalChem
Briefly: AKT Kinase Assay (IMAP fluorescent polarisation) vs AKT2. It is filed as biochemical. The settings on record: activated AKT2, FAM Crosstide substrate. The method, boiled down:
as §1

The target in experiment [4] is T3, AKT1 (Homo sapiens, UniProt P31749).
T3 construct: purchased SignalChem
Briefly: AKT Kinase Assay (IMAP fluorescent polarisation) vs AKT1. It is filed as biochemical. The settings on record: activated AKT1, FAM Crosstide substrate. The method, boiled down:
as §1

T2 sequence (P31751 whole entry): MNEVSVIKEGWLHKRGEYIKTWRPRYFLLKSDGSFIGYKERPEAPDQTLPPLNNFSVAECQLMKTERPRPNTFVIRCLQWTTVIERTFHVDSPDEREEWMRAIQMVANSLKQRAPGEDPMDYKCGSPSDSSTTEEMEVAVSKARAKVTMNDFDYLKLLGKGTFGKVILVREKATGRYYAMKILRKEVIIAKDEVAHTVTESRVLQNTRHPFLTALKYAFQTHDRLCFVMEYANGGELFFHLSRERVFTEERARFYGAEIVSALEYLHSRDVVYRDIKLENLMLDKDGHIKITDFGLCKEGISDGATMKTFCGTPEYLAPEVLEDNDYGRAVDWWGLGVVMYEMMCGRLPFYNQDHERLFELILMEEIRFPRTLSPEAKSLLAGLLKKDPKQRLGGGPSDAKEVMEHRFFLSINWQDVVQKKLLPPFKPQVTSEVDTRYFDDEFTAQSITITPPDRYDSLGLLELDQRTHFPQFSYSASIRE
T3 sequence (P31749 whole entry): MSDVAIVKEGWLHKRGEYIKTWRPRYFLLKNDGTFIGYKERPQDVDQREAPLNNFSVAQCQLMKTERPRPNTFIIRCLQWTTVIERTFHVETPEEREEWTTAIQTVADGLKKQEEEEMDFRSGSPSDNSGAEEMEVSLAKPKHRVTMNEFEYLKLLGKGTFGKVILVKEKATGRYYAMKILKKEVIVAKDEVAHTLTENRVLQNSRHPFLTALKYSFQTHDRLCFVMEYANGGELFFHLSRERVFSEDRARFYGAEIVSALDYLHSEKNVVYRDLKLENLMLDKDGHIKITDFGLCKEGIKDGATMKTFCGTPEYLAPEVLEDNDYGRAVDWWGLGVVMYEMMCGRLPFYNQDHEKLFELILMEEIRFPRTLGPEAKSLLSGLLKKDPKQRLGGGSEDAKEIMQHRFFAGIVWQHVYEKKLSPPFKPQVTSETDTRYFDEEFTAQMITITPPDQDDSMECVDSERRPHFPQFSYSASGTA
T1 sequence (Q9Y243 whole entry): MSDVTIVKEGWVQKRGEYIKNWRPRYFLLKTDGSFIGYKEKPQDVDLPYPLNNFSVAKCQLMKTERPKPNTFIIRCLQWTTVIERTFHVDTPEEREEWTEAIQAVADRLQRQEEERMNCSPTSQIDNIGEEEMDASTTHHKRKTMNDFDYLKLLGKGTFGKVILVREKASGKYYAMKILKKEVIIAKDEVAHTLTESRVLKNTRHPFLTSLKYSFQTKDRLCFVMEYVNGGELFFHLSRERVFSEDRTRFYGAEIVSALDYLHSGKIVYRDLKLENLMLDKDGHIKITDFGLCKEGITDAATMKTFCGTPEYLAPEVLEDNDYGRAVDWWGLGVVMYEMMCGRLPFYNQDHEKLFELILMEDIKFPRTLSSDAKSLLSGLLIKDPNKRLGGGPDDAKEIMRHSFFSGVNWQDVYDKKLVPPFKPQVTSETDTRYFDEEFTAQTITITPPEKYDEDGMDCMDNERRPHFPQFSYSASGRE

Regarding `NC1(c2ccc(-c3oc4nccnc4c3-c3ccccc3)cc2)CCC1` [Example 10, 1-(4-(7-Phenylfuro[2,3-b]pyrazin-6-yl)phenyl)cyclobutanamine.HCl], the IC50 in experiment [1] is above 10 µM; in experiment [2] it was below 10 µM; in experiment [3] it was 1000 to 10000 nM; in experiment [4] it was 1000 to 10000 nM.
Regarding `COc1nc(N2CCNCC2)nc2oc(-c3ccc(C4(N)CCC4)cc3)c(-c3ccccc3)c12` [Example 37, 1-(4-(4-Methoxy-5-phenyl-2-(piperazin-1-yl)furo[2,3-d]pyrimidin-6-yl)phenyl)cyclobutanamine], the IC50 in experiment [1] was 1 to 10 µM; in experiment [2] it was below 10 µM; in experiment [3] it was 100 to 1000 nM; in experiment [4], 100 to 1000 nM.
On to `NC1(c2ccc(-c3oc4ccncc4c3-c3ccccc3)cc2)CCC1` [Example 1, 1-(4-(3-phenylfuro[3,2-c]pyridin-2-yl)phenyl)cyclobutanamine], for which the IC50 in experiment [1] was 1 to 10 µM; in experiment [2] it was below 10 µM; in experiment [3] it was 1000 to 10000 nM; in experiment [4] it was 1000 to 10000 nM.
With `NC1(c2ccc(-c3oc4nc[nH]c(=O)c4c3-c3ccccc3)cc2)CCC1` [Example 12, 6-(4-(1-Aminocyclobutyl)phenyl)-5-phenylfuro[2,3-d]pyrimidin-4(3H)-one], the IC50 in experiment [1] is 1 to 10 µM; in experiment [2] it was below 10 µM; in experiment [3] it was 1000 to 10000 nM; in experiment [4], 1000 to 10000 nM.
Turning to `CSc1ncc2c(-c3ccccc3)c(-c3ccc(C4(N)CCC4)cc3)oc2n1` [Example 24, 1-(4-(2-(Methylthio)-5-phenylfuro[2,3-d]pyrimidin-6-yl)phenyl)cyclobutanamine], the IC50 in experiment [1] is above 10 µM; in experiment [2], below 10 µM; in experiment [3], 100 to 1000 nM; in experiment [4], 1000 to 10000 nM.
Take `COc1nc(OCCO)nc2oc(-c3ccc(C4(N)CCC4)cc3)c(-c3ccccc3)c12` [Example 36, 2-((6-(4-(1-Aminocyclobutyl)phenyl)-4-methoxy-5-phenylfuro[2,3-d]pyrimidin-2-yl)oxy)ethanol]: the IC50 is above 10 µM in experiment [1], below 10 µM in experiment [2], 100 to 1000 nM in experiment [3] and at most 100 nM in experiment [4].
Regarding `NC1(c2ccc(-c3oc4ncn(CC(F)F)c(=O)c4c3-c3ccccc3)cc2)CCC1` [Example 108, 6-(4-(1-Aminocyclobutyl)phenyl)-3-(2,2-difluoroethyl)-5-phenylfuro[2,3-d]pyrimidin-4(3H)-one], the values for the IC50 in experiment [1], in experiment [3] and in experiment [4] were 1 to 10 µM, at most 100 nM and 1000 to 10000 nM, respectively.
Taken in the same sequence, the figures for `NC1(c2ccc(-c3oc4nc(NCCO)nc(N5CCOCC5)c4c3-c3ccccc3)cc2)CCC1` [Example 71, 2-((6-(4-(1-Aminocyclobutyl)phenyl)-4-morpholino-5-phenylfuro[2,3-d]pyrimidin-2-yl)amino)ethanol] were above 10 µM, 1000 to 10000 nM and 1000 to 10000 nM.
`Cn1c(N2CCNC(=O)C2)nc2oc(-c3ccc(C4(N)CCC4)cc3)c(-c3ccccc3)c2c1=O` [Example 99, 6-(4-(1-Aminocyclobutyl)phenyl)-3-methyl-2-(3-oxopiperazin-1-yl)-5-phenylfuro[2,3-d]pyrimidin-4(3H)-one]: the IC50 in experiment [1] was 1 to 10 µM; in experiment [3], at most 100 nM; in experiment [4], 1000 to 10000 nM.
As for `CNc1nc(OC)c2c(-c3ccccc3)c(-c3ccc(C4(N)CCC4)cc3)oc2n1` [Example 32, 6-(4-(1-Aminocyclobutyl)phenyl)-4-methoxy-N-methyl-5-phenylfuro[2,3-d]pyrimidin-2-amine], the IC50 in experiment [1] was above 10 µM; in experiment [2], below 10 µM; in experiment [3], 100 to 1000 nM; in experiment [4], at most 100 nM.
In the case of `NC1(c2ccc(-c3oc4nc(OCCO)ncc4c3-c3ccccc3)cc2)CCC1` [Example 54, 2-((6-(4-(1-Aminocyclobutyl)phenyl)-5-phenylfuro[2,3-d]pyrimidin-2-yl)oxy)ethanol], the values for the IC50 in experiment [1], in experiment [3] and in experiment [4] were above 10 µM, 100 to 1000 nM and at most 100 nM, respectively.
Turning to `COc1nccc2c(-c3ccccc3)c(-c3ccc(C4(N)CCC4)cc3)oc12` [Example 126, 1-(4-(7-Methoxy-3-phenylfuro[2,3-c]pyridin-2-yl)phenyl)cyclobutanamine], the IC50 in experiment [1] was above 10 µM; in experiment [3] it was 100 to 1000 nM; in experiment [4], 100 to 1000 nM.
Consider `NC1(c2ccc(-c3oc4ncn(CCF)c(=O)c4c3-c3ccccc3)cc2)CCC1` [Example 103, 6-(4-(1-Aminocyclobutyl)phenyl)-3-(2-fluoroethyl)-5-phenylfuro[2,3-d]pyrimidin-4(3H)-one, HCl], for which the IC50 in experiment [1] was 1 to 10 µM; in experiment [3], at most 100 nM; in experiment [4], 100 to 1000 nM.
On to `NC1(c2ccc(-c3oc4ncn(CC(F)(F)F)c(=O)c4c3-c3ccccc3)cc2)CCC1` [Example 106, 6-(4-(1-Aminocyclobutyl)phenyl)-5-phenyl-3-(2,12-trifluoroethyl)furo[2,3-d]pyrimidin-4(3H)-one, HCl], for which the values for the IC50 in experiment [1], in experiment [3] and in experiment [4] were 1 to 10 µM, at most 100 nM and 1000 to 10000 nM, respectively.
In the case of `COc1nc(N2CCCCC2)nc2oc(-c3ccc(C4(N)CCC4)cc3)c(-c3ccccc3)c12` [Example 47, 1-(4-(4-Methoxy-5-phenyl-2-(piperidin-1-yl)furo[2,3-d]pyrimidin-6-yl)phenyl)cyclobutanamine], the IC50 is above 10 µM in experiment [1], 1000 to 10000 nM in experiment [3] and 1000 to 10000 nM in experiment [4].
As for `CNc1nc2oc(-c3ccc(C4(N)CCC4)cc3)c(-c3ccccc3)c2c(=O)n1CC1CC1` [Example 94], the IC50 was 1 to 10 µM in experiment [1], at most 100 nM in experiment [3] and 1000 to 10000 nM in experiment [4].
On to `CSc1nc(I)c2c(-c3ccccc3)c(-c3ccc(C4(N)CCC4)cc3)oc2n1` [Example 75, 1-(4-(4-Iodo-2-(methylthio)-5-phenylfuro[2,3-d]pyrimidin-6-yl)phenyl)cyclobutanamine], for which the IC50 was above 10 µM in experiment [1], 1000 to 10000 nM in experiment [3] and 1000 to 10000 nM in experiment [4].
Regarding `N#Cc1cccc2c(-c3ccccc3)c(-c3ccc(C4(N)CCC4)cc3)oc12` [Example 8, 2-(4-(1-Aminocyclobutyl)phenyl)-3-phenylbenzofuran-7-carbonitrile], the IC50 is above 10 µM in experiment [1], 1000 to 10000 nM in experiment [3] and 1000 to 10000 nM in experiment [4].
On to `COc1nccc2oc(-c3ccc(C4(N)CCC4)cc3)c(-c3ccccc3)c12` [Example 17, 1-(4-(4-Methoxy-3-phenylfuro[3,2-c]pyridin-2-yl)phenyl)cyclobutanamine], for which the IC50 in experiment [1] was above 10 µM; in experiment [3], 1000 to 10000 nM; in experiment [4], 1000 to 10000 nM.
